According to patent EP0072352B1, “Benzazepin-2-ones, process for their preparation, pharmaceutical preparations containing these compounds and the compounds for therapeutical use” (CIBA-GEIGY AG, priority 1981, dated 1983):
pIC50: −log10 of the molar value. Counter-ions that a name gives are not always drawn. Like-named read-outs stand apart in the source and are kept apart here.

Legend:
[1] = system: spontan hypertensiven Ratten; assay: Antihypertensive effect in spontaneously hypertensive rats, indirect measurement of systolic blood pressure (tail cuff), oral dosing; type: in vivo
Description: Die in vivo blutdrucksenkende Wirkung wird entweder direkt mit einem Katheter, der in die femorale Arterie des Versuchstieres eingeführt ist, oder indirekt durch Sphygmomanometrie am Rattenschwanz, und einem Übertragungsinstrument registriert. Der Blutdruck wird vor und nach der Verabreichung des Wirkstoffes in mm Hg bestimmt.
So sind die antihypertensiven Wirkungen in spontan hypertensiven Ratten durch indirekte Messung des systolischen Blutdrucks nachweisbar. Nicht narkotisierte Ratten werden einzeln in Käfigen, welche ihre Bewegung einschränken, in eine leicht geheizte Kammer gebracht. Ein Puls-Sensor wird innerhalb einer aufblasbaren Manschette am Schwanz jeder Ratte angebracht. Die Manschette wird aufgeblasen, um die Schwanz-Arterie zu schließen. Der Druck in der Manschette wird kontinuierlich reduziert, und der systolische Druck entspricht demjenigen Druck in der Manschette, bei welchem die Pulswellen wieder auftreten. Nach der Registrierung von Kontrollwerten des Blutdrucks und der Herzfrequenz werden die Testverbindungen peroral einmal täglich an vier aufeinanderfolgenden Tagen verabreicht. Zusätzliche Blutdruckmessungen werden üblicherweise nach 2,0, 4,0 und 23,5 Stunden nach jeder täglichen Dosis vorgenommen. Die Werte werden mit denjenigen von Ratten, welche lediglich mit der Trägersubstanz behandelt worden sind, verglichen. […]

[2] = target: T1, Angiotensin-umwandelnde Enzym (ACE) (Oryctolagus cuniculus, UniProt P12822); assay: In vitro ACE inhibition (ACEI), rabbit lung tissue preparation, hippuryl-histidyl-leucine substrate, method of Cheung and Cushman; type: biochemical, Kaninchen
T1 construct: Es wurde ein Kaninchen-Lungengewebe-Präparat; from tissue; host or cells: lung of adult male rabbits
T1 sequence (P12822 34-1310): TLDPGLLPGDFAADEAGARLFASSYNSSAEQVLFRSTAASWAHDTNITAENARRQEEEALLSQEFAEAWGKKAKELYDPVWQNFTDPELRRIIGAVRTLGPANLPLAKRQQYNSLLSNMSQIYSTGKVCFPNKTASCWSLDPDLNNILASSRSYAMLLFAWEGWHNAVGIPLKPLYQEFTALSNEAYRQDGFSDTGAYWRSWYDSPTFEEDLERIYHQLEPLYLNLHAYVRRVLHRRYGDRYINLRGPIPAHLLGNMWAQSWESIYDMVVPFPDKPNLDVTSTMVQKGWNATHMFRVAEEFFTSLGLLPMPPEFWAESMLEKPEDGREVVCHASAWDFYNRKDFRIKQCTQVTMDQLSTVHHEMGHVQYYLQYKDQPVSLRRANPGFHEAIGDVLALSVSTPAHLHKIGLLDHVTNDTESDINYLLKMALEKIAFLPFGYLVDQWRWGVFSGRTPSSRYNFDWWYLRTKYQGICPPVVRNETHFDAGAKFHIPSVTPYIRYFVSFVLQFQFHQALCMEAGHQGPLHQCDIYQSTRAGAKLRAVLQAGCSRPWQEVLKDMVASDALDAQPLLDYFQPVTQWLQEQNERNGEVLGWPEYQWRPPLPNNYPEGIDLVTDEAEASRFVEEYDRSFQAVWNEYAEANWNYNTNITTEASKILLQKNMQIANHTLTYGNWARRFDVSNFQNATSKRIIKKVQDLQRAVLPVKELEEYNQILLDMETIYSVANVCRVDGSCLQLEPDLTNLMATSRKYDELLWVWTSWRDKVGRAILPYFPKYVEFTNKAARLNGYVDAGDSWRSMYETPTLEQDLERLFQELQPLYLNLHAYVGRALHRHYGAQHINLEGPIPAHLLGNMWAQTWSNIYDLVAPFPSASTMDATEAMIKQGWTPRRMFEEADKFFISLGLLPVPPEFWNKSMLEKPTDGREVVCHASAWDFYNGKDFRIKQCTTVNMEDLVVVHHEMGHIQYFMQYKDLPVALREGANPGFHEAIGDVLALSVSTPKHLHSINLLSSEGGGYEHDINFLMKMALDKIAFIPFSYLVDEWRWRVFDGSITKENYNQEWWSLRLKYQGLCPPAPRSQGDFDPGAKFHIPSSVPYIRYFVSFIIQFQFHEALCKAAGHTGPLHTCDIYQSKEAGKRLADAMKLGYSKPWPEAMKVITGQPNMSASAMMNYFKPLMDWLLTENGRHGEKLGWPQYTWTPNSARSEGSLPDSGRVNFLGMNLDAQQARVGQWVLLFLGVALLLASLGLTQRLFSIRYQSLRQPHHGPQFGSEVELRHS
Description: Die in-vitro-Hemmung des Enzyms, welches das Angiotensin umwandelt, kann bei den Verbindungen dieser Erfindung analog zu Biochim. Biophys. Acta 293, 451 (1973) nachgewiesen werden. Gemäß dieser Methode werden die genannten Verbindungen in ungefähr 1 mMol-Konzentrationen in Phosphatpuffer aufgelöst. Zu 100 Mikroliter von Lösungen der Testverbindung in Phosphatpuffer, welche man auf die gewünschte Konzentration verdünnt, gibt man zuerst 100 Mikroliter von 5 millimolarem Hippuryl-histidylleucin in Phosphatpuffer und dann 50 µl des Angiotensin-umwandelnden Enzyms. Dieses Enzym wird aus Lungen von erwachsenen männlichen Kaninchen in Tris-Puffer, der Kalium- und Magnesiumchlorid und auch Rohrzucker enthält, hergestellt. Die genannten Lösungen werden 30 Minuten bei 37 °C inkubiert, und die weitere Reaktion wird durch Hinzufügen von 0,75 ml einer 0,6-normalen wäßrigen Natriumhydroxidlösung gestoppt. Dann gibt man bei Zimmertemperatur 100 Mikroliter einer 0,2 %-igen Lösung von o-Phthalaldehyd in Methanol und nach 10 Minuten 100 Mikroliter 6n-Chlorwasserstoffsäure dazu. Diese Proben werden in einem Spektrophotometer bei 360 nm mit Wasser verglichen, und ihre optische Dichte wird bestimmt. Diese Werte werden durch einen Konversionsfaktor einer Standard-Kurve angepaßt, wobei man die während der genannten Inkubation von 30 Minuten gebildete Histidyl-leucin-Menge in Nanomolen erhält. Die Ergebnisse werden, um den IC50-Wert zu bestimmen, gegenüber den Wirkstoff-Konzentrationen graphisch als Kurve dargestellt. Der IC50-Wert bedeutet diejenige WirkstoffKonzentration, welche die Hälfte der Aktivität einer Kontrollprobe, die keinen Wirkstoff enthält, ergibt. Als Illustration der Erfindung sei auf das « höher schmelzende 1-Carboxymethyl-3-(1-carboxy-3-phenylpro- pylamino)-2,3,4,5-tetrahydro-1H-[1]-benzazepin-2-on des Beispiels 9 und auf das entsprechende S,S-Enantiomere des Beispiels 19 hingewiesen, welche einen lC50-Wert von 5,2 × 10^-9 M bzw. 1,7 × 10^-9 M aufweisen. Das entsprechende « niedriger schmelzende » 1-Carboxymethyl-3-(1-carboxy-3-phenylpropy- iamino)-2,3,4,5-tetrahydro-1H-[1] benzazepin-2-on des Beispiels 8 zeigt einen lC50-Wert von 5,8 ×10^-8 M.
Die Prüfung der Wirkung von Verbindungen ist gemäss den Methoden für die Auswertung der Hemmung des Enzyms, welches das Angiotensin umwandelt [angiotensin converting enzyme = ACE] durchgeführt worden. In der biochemischen Beurteilung der in vitro ACE-Hemmung [ACE inhibition = A-CEI] wird die Aktivität einer Verbindung im Kaninchen-Lungengewebe bestimmt.
Es wurde ein Kaninchen-Lungengewebe-Präparat [Das and Saffer, J. Biol. Chem. 250 : 6762 (1975) für die Bestimmung von ACE nach der Methode von Cheung und Cushman [Cheung and Cushman, Biochim. Biophys. Acta 293, 451 (1973)] verwendet. In dieser Methode wird die Menge des Histidyl-leucins. welche aus einem synthetischen Substrat innerhalb einer Inkubation von 30 Minuten bei 37° freigesetzt wird, spektrophotometrisch bestimmt. Die lC50-Werte der ACE-Hemmung werden dann graphisch berechnet. Der lC50-Wert ist die Konzentration (in Mol) der getesteten Verbindung, welche die in Abwesenheit der Testsubstanz entstehende Menge des Histidyl-leucins um 50 % herabsetzt.

[3] = system: durch Angiotensin I (AI) hervorgerufene Blutdrucksteigerung; assay: Inhibition of the angiotensin I (AI) induced blood pressure rise after intravenous administration of the test compound; type: in vivo, Ratten; details: for Hemmung der Blutdrucksteigerung nach Angiotensin I-Reizung: 1 mg/kg i.v., anaesthetised male normotensive rats, during 30 min after administration, 333 ng/kg angiotensin I; for % AI Hemmung: rat, mean inhibition within 30 min after administration
Description: Die Verbindungen der Erfindung zeigen nach intravenöser oder oraler Verabreichung eine hemmende Wirkung gegen die durch Angiotensin I hervorgerufene Blutdrucksteigerung auch an normotensiven Ratten. Das Angiotensin 1 wird durch das genannte Umwandlungsenzym zu der stark blutdrucksteigernden Substanz Angiotensin II hydrolysiert. Die Hemmung des genannten Enzyms blockiert die Bildung von Angiotensin II aus Angiotensin I. In dieser Weise wird die durch Angiotensin I provozierte Blutdrucksteigerung abgeschwächt.
Der entsprechende in-vivo-Test mit den intravenös verabreichten Verbindungen wird mit männlichen normotensiven Ratten, welche mit dem Natriumsalz der 5-Äthyl-5-(1-methylpropyl)-2-thiobarbitursäure narkotisiert sind, durchgeführt. Eine femorale Arterie und eine Wadenvene werden mit je einer Hohlnadel für die direkte Messung des Blutdrucks und für die intravenöse Verabreichung des Angiotensins I und einer erfindungsgemäßen Verbindung versehen. Nach der Stabilisierung des basalen Blutdrucks wird die Druckänderung nach drei, in 5-minütigen Intervallen, i. v. durchgeführten Reizungen mit 333 ng/kg Angiotensin I bestimmt. Solche Druckänderungen werden wieder nach 5,10,15, 30 und 60 Minuten nach intravenöser Verabreichung der zu prüfenden Verbindung bestimmt. Die letztgenannten Druckänderungen werden mit den Anfangswerten verglichen. Jede festgestellte Abnahme vom Ansprechen des Blutdrucks ist ein Hinweis auf die Hemmung des Enzyms, welches das Angiotensin I umwandelt. Als Illustration der Erfindung sei auf das « höher schmelzende » 1-Carboxymethyl-3-(1-äthoxycarbonyl-3-phenylpropylamino)-2,3,4,5-tetrahydro-1H-[1] benzazepin-2-on des Beispiels 1 und auf das entsprechende S,S-Enantiomere des Beispiels 12 hingewiesen. Diese hemmen vollständig die Blutdrucksteigerung nach Angiotensin I-Reizung während 30 Minuten nach intravenöser Verabreichung einer Dosis von 1 mg/kg pro Substanz.
In der in vivo Prüfungsmethode wird zuerst durch Verabreichung des Angiotensins I (AI) an das Versuchstier eine Blutdrucksteigerung hervorgerufen. Es wird dann die Hemmung der einzelnen Verbindungen auf diese Blutdrucksteigerung gemessen.
11. Methode der Hemmung der durch Angiotensin I (AI) hervorgerufenen Blutdrucksteigerung, durch intravenöse Verabreichung der Testverbindung (% AI-Hemmung)
In diesen Untersuchungen wird wie oben beschrieben, je ein Katheter in eine femurale Arterie und in eine Wadenvene der Ratte eingeführt.
Der arterielle Druck wurde von dem Arterienkatheter aus registriert, während man Angiotensin I (AI) und die einzelnen Testverbindungen durch den Venenkatheter injiziert hatte. Die Hemmung der durch Angiotensin I verursachten Blutdrucksteigerung ist als prozentuelle Abnahme des vor der Behandlung erhaltenen Kontrollwertes der Blutdrucksteigerung ausgedrückt und in der Tabelle als Durchschnittswert der Hemmung innerhalb 30 Minuten nach Verabreichung der Testsubstanz angegeben. (Siehe Tabelle Seite 41 f.)

[4] = rabbit lung tissue preparation, 30 min incubation at 37°, read-out: In vitro ACEI IC50
[5] = ACE from rabbit lung, 30 min at 37 °C, read-out: IC50-Wert

Compound | pIC50 [2, 4] | % AI Hemmung ([3]; i.v. Dosis 0.1 mg/kg) [%] | pIC50 [2, 5] | % AI Hemmung ([3]; i.v. Dosis 0.03 mg/kg) [%] | other results
CCOC(=O)[C@H](CCc1ccccc1)N[C@H]1CCc2ccccc2N(CC(=O)O)C1=O (racemic) [Beispiel 1, 1-Carboxymethyl-3-(1-äthoxycarbonyl-3-phenylpropylamino)-2,3,4,5-tetrahydro-1H-[1] benzazepin-2-on] | 6.22 | 50 |  |  | Blutdruck gesenkt (antihypertensiver Effekt) ([1]; 3 mg/kg p. o., once daily for four days, average, measured 2 and 4 h after dosing on the last two days): 40 mm Hg; Hemmung der Blutdrucksteigerung nach Angiotensin I-Reizung [3]: vollständig; % AI Hemmung ([3]; i.v. Dosis 1.0 mg/kg): 100%; % AI Hemmung ([3]; i.v. Dosis 10 mg/kg): 100%
O=C(O)CN1C(=O)C(NC(CCc2ccccc2)C(=O)O)CCc2ccccc21 (single isomer, unassigned) [Beispiel 8, 1-Carboxymethyl-3-(1-carboxy-3-phenylpropylamino)-2,3,4,5-tetrahydro-1H-[1] benzazepin-2-on] |  |  | 7.24 |  | 
O=C(O)CN1C(=O)C(NC(CCc2ccccc2)C(=O)O)CCc2ccccc21 (single isomer, unassigned) [Beispiel 9, 1-Carboxymethyl-3-(1-carboxy-3-phenylpropylamino)-2,3,4,5-tetrahydro-1H-[1]-benzazepin-2-on] | 8.30 | 80 | 8.28 | 40 | % AI Hemmung ([3]; i.v. Dosis 0.3 mg/kg): 93%
CCOC(=O)[C@H](CCc1ccccc1)N[C@H]1CCc2ccccc2N(CC(=O)O)C1=O [12 HCl Salz] | 6.40 | 82 |  | 29 | % AI Hemmung ([3]; i.v. Dosis 0.06 mg/kg): 74%; % AI Hemmung ([3]; i.v. Dosis 0.3 mg/kg): 95%; % AI Hemmung ([3]; i.v. Dosis 1.0 mg/kg): 100%
CCOC(=O)[C@@H](CCc1ccccc1)N[C@H]1CCc2ccccc2N(CC(=O)O)C1=O [Beispiel 5, 1-Carboxymethyl-3-(1-äthoxycarbonyl-3-phenylpropylamino)-2,3,4,5,-tetrahydro-1H-[1] benzazepin-2-on] | 6.70 | 37 |  |  | 
CCOC(=O)[C@H](CCc1ccccc1)N[C@H]1CCc2ccccc2N(CC(=O)O)C1=O [Beispiel 12, 1-Carboxymethyl-3S-(1S-äthoxycarbonyl-3-phenylpropylamino)-2,3,4,5-tetrahydro-1H-[1] benzazepin-2-on] |  |  |  |  | Blutdruck gesenkt (antihypertensiver Effekt) ([1]; peroral dose of 1 mg/kg): 30 mm Hg; Hemmung der Blutdrucksteigerung nach Angiotensin I-Reizung [3]: vollständig
O=C(O)CN1C(=O)[C@@H](N[C@@H](CCc2ccccc2)C(=O)O)CCc2ccccc21 [Beispiel 19, 1-Carboxymethyl-3S-(1S-carboxy-3-phenylpropylamino)-2,3,4,5-tetrahydro-1H-[1] benzazepin-2-on] | 8.70 | 93 | 8.77 | 70 | % AI Hemmung ([3]; i.v. Dosis 0.007 mg/kg): 14%; % AI Hemmung ([3]; i.v. Dosis 0.01 mg/kg): 28%; % AI Hemmung ([3]; i.v. Dosis 0.02 mg/kg): 69%; % AI Hemmung ([3]; i.v. Dosis 0.06 mg/kg): 84%
